The target in one series is T1, RelSeq1-385 (Streptococcus dysgalactiae, UniProt Q54089).
T1 construct: gene relA; N-terminal catalytic half, residues 1-385; His8-SUMO tag removed by Ulp1; expressed in E. coli BL21(DE3) Rosetta
The class given is biochemical. Particulars: 8 mM ATP, 8 mM GTP, 16 mM MgCl2, 50 mM Tris-HCl pH 8.9, 37 °C, control reaction.

Substrate in series [1]: Nc1ncnc2c1ncn2[C@@H]1O[C@H](COP(=O)(O)OP(=O)(O)OP(=O)(O)O)[C@@H](O)[C@H]1O
The series is described as follows: purified protein. The class given is biochemical, Methylorubrum extorquens. The following applies: 8 mM GTP, ATP 0.25-2 mM, 8 mM CoCl2, 50 mM Tris-HCl pH 8.9, 37 °C, 2 h, 80 nM enzyme, pyrophosphate donor.

Substrate in series [2]: Nc1nc2c(ncn2[C@@H]2O[C@H](COP(=O)(O)OP(=O)(O)OP(=O)(O)O)[C@@H](O)[C@H]2O)c(=O)[nH]1
Nature of the series: purified protein. The class given is biochemical, Methylorubrum extorquens. The following applies: 8 mM ATP, GTP 1-8 mM, 8 mM CoCl2, 50 mM Tris-HCl pH 8.9, 37 °C, 2 h, 80 nM enzyme, pyrophosphate acceptor.

Read-outs that look alike come from different tables or passages of the source.

T1 sequence (Q54089 1-385): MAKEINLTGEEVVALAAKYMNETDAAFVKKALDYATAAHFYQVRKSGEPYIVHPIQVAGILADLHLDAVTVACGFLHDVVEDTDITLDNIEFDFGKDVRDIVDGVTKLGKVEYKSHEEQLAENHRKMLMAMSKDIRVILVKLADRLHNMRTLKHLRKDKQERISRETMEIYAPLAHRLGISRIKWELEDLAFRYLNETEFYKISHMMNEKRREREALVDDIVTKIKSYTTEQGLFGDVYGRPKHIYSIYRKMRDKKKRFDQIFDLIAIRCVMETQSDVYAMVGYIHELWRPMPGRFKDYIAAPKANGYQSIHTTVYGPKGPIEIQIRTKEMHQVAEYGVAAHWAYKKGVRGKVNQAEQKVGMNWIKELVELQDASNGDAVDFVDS

For `Nc1ncnc2c1ncn2[C@@H]1O[C@H](COP(=O)(O)OP(=O)(O)OP(=O)(O)O)[C@@H](O)[C@H]1O` [ATP], the “pppGpp synthesis from [33P]gamma-ATP, two-dimensional TLC” value on RelSeq1-385 (pyrophosphate donor) was “ATP + GTP with RelSeq1-385 (to visualize pppGpp)”.
Regarding `Nc1nc2c(ncn2[C@@H]2O[C@H](COP(=O)(O)OP(=O)(O)OP(=O)(O)O)[C@@H](O)[C@H]2O)c(=O)[nH]1` [GTP], at RelSeq1-385 (pyrophosphate acceptor), the “pppGpp synthesis from [33P]gamma-ATP, two-dimensional TLC” value was “ATP + GTP with RelSeq1-385 (to visualize pppGpp)”.

B1: RSHMex1-352 (Methylorubrum extorquens AM1) (protein)
chain: MMRQYELVERVKRYNPAANEALLNRAYVYAMRAHGTQKRASGDPFFAHPLEVAAILTDLRLDDATIVAAVLHDTVEDTAATLDEIREIFGPEIGALVDGLTKLKRLDLVSKRAVQGENFRKLLLAVAEDVRVLLVKLADRLHNMRTLHFMRDDKRARIAEETLDIYAPLAGRMGMQELRDELEDLSFRTLKPEVYATITKRLEDLSAKSGSVIESIEHDLTARLAARGIAAHVKGRLKKPFSIWSKMERKSVAFEQLSDIVGFRVIVGTLAECYAALGVVHTSWPMVPGRYKDYVSTPKQNDYRSIHTTVIGPKRQRVELQIRTAEMDEIAEYGIAAHAHYKEAGKEGVEGE
notes: N-terminal catalytic half (hydrolase + synthetase domains, residues 1-352), CTD regulatory domain omitted; His8-SUMO tag removed by Ulp1; expressed in E. coli BL21(DE3) Rosetta
With B1, the Km (as a rule, the concentration of substrate that gives half-maximal velocity) in “purified protein [1]” is 390 ± 10 µM; in the series “purified protein [2]” it was 3000 ± 290 µM.

The record behind these values is PMC6491832, “Methylobacterium extorquens RSH Enzyme Synthesizes (p)ppGpp and pppApp in vitro and in vivo, and Leads to Discovery of pppApp Synthesis in Escherichia coli” (Frontiers in Microbiology, 2019).
